The record followed here is article PMC9445017, “Molecular basis for polysaccharide recognition and modulated ATP hydrolysis by the O antigen ABC transporter” (Nature Communications, 2022).

The target in one assay is T1, WzmWzt (full-length) (Aquifex aeolicus, UniProt O67181).
T1 construct: gene abcT4; full-length wild-type transporter, Wzm2Wzt2; His-tagged (WzmWzt-His), purified as previously described; in lipid nanodiscs or DDM micelles; with O antigen ABC transporter permease Wzm (Transport permease protein)
As to the kind of experiment: NADH-coupled ATPase assay. Format: biochemical. As to conditions: 1 mM ATP, 27 °C; CBD ligand, non-physiologically high concentration.

The target in assay [1] is T2, Wzt-CBD (also Wzt-CBM, WztC) (Aquifex aeolicus, UniProt O67181).
T2 construct: gene abcT4; N-terminal His6-TEV tag removed; E. coli C43(DE3); domain-swapped dimer
Nature of the assay: isothermal titration calorimetry. Format: binding. As to conditions: 50 mM HEPES pH 8.0, 25 °C; 1:1 per CBD monomer; read-out: affinity.

pKd: −log10 of the molar value.

T2 sequence (O67181 entry or part of it): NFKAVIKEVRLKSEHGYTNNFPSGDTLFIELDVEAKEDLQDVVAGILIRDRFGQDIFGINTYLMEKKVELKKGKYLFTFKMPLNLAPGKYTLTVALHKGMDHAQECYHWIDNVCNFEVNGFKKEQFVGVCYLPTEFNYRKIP
T1 sequence (O67181 entry or part of it): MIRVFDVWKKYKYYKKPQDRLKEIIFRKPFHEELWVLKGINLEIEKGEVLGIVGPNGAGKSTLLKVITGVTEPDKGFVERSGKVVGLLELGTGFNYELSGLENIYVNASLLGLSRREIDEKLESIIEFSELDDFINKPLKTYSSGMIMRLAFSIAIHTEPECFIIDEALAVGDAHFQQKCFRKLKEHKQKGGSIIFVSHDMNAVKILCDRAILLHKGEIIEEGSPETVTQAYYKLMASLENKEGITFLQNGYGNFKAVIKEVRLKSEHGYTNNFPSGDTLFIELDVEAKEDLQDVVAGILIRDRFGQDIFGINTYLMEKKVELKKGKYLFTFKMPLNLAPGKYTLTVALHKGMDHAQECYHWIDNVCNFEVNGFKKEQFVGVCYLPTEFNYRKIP
T1 sequence (O67182 entry or part of it, further chain): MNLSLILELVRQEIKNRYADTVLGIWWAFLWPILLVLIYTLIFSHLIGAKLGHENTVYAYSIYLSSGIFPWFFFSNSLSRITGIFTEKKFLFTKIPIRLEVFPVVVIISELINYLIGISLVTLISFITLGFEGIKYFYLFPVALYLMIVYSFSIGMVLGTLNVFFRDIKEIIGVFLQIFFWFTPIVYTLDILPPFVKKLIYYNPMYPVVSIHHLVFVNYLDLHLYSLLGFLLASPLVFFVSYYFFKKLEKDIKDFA

Take `CO[C@H]1[C@H](O)[C@@H](CO)OC(O)[C@H]1O` (stereo partly drawn) [3-O-methyl-D-mannose]: the “% increase in ATPase activity at high concentration” value on WzmWzt (full-length) is ~ 50%. Moreover, the pKd in assay [1] is approximately 3.63.
